Data set [1] is described as follows: Isoelectric focusing. It counts as physicochemical. To be noted: doubly purified material. The text has this: For the purpose of obtaining electrophoretic properties, the anthopleurin-Cobtained in Example 1, Steps a through d below, was rechromatographed on CM Sephadex C-25, and G-10 according to the process set forth in Example 1, Steps c, and d, respectively. The doubly purified material was subjected to electrophoretic analysis using commercially available pre-cast 12% acrylamide gels and matched buffer systems obtained from Bio·Rad Laboratories, 32nd and Griffin, Richmond, California.
Isoelectric focusing gave the isoelectric point at a pH = 8.0. Disc gel electrophoresis with 12% polyacrylamide gel at pH 3.6 gave an Rf value of 0.49 versus methyl green tracking dye. […] Sodium dodecyl sulfate (SDS) disc gel electrophoresis using a 10% gel indicated a m.w. of about 5,200 after incubation with dithioerythritol, using RNase A and pancreatic trypsin inhibitor (PTI) for comparison. The molecular weight is so low that these values are only approximate.

Data set [2] relates to isolated rat atria. As to the kind of experiment: Bioassay for positive inotropic effect on isolated rat atria. The format is cell-based. Here is the method: Bioassay for Determining Positive Inotropic Effect
Bioassays of the solutions containing anthopleurin-C are performed on isolated atria of rat hearts. The atrium is separated from the rest of the heart and suspended in an isolated organ bath (20, 25, or 50 ml.) containing Krebs Ringer bicarbonate medium (pH 7.4) of the following composition in distilled deionized water (in mmoles): Na^+, 145; K^+, 6.02; Ca^+2, 1.22; Mg^+2, 1.33; Cl^-, 126; HCO3^-, 25.3; PO4^-3, 1.2; SO4^-2, 1.33; and glucose, 5.5. The temperature of the organ bath is maintained at 30° C., and the Krebs-Ringer medium is continuously aerated with 95% O2 --5% CO2.
The spontaneously beating atrial preparation is connected by a thin silk thread to a force-displacement transducer (Grass model FT.03), and the contractile movements are recorded on a six-channel polygraph Grass Model 7. The preparation is allowed to equilibrate under 750 mg. tension for 60 minutes prior to beginning an assay. After this equilibration, during which the preparations are washed out every 30 minutes, the spontaneous beat rate of the atria remains constant; the change during a 10-minute observation being less than 5 beats/min. The changes in contractile force and rate produced by the test solution containing anthopleurin-C is expressed as a percentage increase or decrease in tension and rhythm, with the period immediately preceding addition of test solution to the tissue bath as the baseline for comparison.

Data set [3] is described as follows: Solubility in deionized water. It counts as physicochemical.
Data set [4] can be described thus: Stability at neutral and lower pH. It counts as physicochemical. The note with it: neutral and lower pH values.

anthopleurin-C showed an isoelectric point in data set [1] of 8.0 pH. The “potency relative to ouabain in positive inotropic effect” value in data set [2] (fold as potent as ouabain) is reported as 200-1000 x. In addition, in data set [2] (isolated rat atria), the “ED50, positive inotropic effect” value turned out to be 3 nM and the chronotropic effect entry is on record as “does not show any chronotropic effect”. For the same substance, the solubility result in data set [3] is on record as “very soluble”. Also, in data set [4], the stability entry is “relatively stable”.

For the origin of these results see patent US4103004A, “Cardiotonic agent” (University of Hawaii, priority 1977, dated 1978).
